Reference: patent US20090304607A1, “Antibacterial Flavor and Fragance Composition and Halitosis-Inhibition Flavor and Fragrance Composition and Oral Care Composition Containing the Same” (TAKASAGO INTERNATIONAL CORPORATION, priority 2002, published 2009)

What was measured:
[1] = test system: volatile sulfide production from saliva; assay: Inhibition of volatile sulfide production from saliva (anaerobic culture, FPD-GC of head space); type: cell-based; conditions: saliva cultured 37° C. 3 hours under nitrogen
Description: A test of inhibitory activity of the fragrance materials on volatile sulfide production from saliva was carried out according to the following method. Saliva was collected in a 50 ml of sterile centrifuge tube from testee without brushing teeth in the morning between 9 to 10 o'clock, and was cooled on ice until use. Each of 2 ml of the saliva was put into sterile test tube with screw cap aseptically. Saliva only was used as control and that mixed with 20 μl of ethanol was used as reference.
After the addition of samples, the inner air was replaced nitrogen in a stream of nitrogen gas at 0.5 atm under stirring with a voltex mixer. Cultivation was carried out at 37° C. for 3 hours and cooled on ice until use. Volatile sulfides were analyzed by a gas chromatograph (FPD-GC) with a flame photometer. In this connection, the samples after the culture were stored in ice-water until their analysis.
Column: 6 m×4 mm i.d. (glass packed column) Column liquid phase: 20% DNP on 80/100 mesh Chromosorb W AW DMCS Column temperature: 100° C. Carrier gas (flow rate): N2 (40 ml/min) Injection temperature: 120° C. Detector: FPD (flame photometric detector; fitted with 393 nm filter for sulfur compound detection) Detector temperature: 150° C.
The inhibition rate of methyl mercaptan was determined according to the following equation:
Inhibition rate (%) of methyl mercaptan={(Blank−Sample)/Blank}×100
Blank and Sample in the equation represent the quantities of producing methyl mercaptan in respective cases. […]

[2] = test system: Fusobacterium nucleatum JCM 6328 (Fn-1); assay: Bactericidal activity, CFU measuring method per Quantitative Suspension Test (EN 1276); type: cell-based; conditions: for Results of Judgment 30 sec (Log decrease of number of bacteria vs control): 30 sec contact; for Results of Judgment 1 min (Log decrease of number of bacteria vs control): 1 min contact
Description: The strain used in the bactericidal activity was obtained from The Institute of Physical and Chemical Research which was known to be a pathogen of periodontal disease and also known to produce volatile sulfides.
Fn-1 was cultured on slants of GAM medium (Nissui Pharmaceutical Co. Ltd.) and added physical saline to make a cell suspension. In detail, to each slant cultured at 37° C. for 24 hours under an anaerobic condition using BBL gas-pack anaerobic system, 2 ml of physiological saline was added and scraped off the microbes with a transfer loop to make a cell suspension. This operation was repeated twice, and the combined suspension was centrifugalized, added again a half amount of physiological saline to the precipitate to make the suspension. The suspension was filtered through two sheets of sterile gauze to remove agar pieces and fibrous cells. The filtrate was centrifugalized again, the precipitate was re-suspended in physiological saline to use for the tests.
As for test solutions, fragrance samples were dissolved in equal weight of dimethylformamide (DMF) and were diluted with ethanol to necessary concentrations (volume/volume).
Each test solution (30 μl) was added to sterile distilled water and stirred or subjected to ultrasonic treatment to dissolve sample or to form a homogeneous suspension.
To each solution or homogeneous suspension, 333 μl of previous cell suspension of Fn-1 was added and stirred. After 30 seconds and 1 minute, each 333 μl was added to 3 ml of D/E Neutralization broth (DIFCO) (10 fold dilution), 100 fold and 1000 fold dilution liquids were made similarly. Each 50 μl of the liquid was spread on 15 ml of Trypticase soy agar plates using Autoplate 4000 (Spiral Biotec Co. Ltd., MD, USA) and were cultivated at 37° C. for 40 hours under anaerobic condition. After the cultivation, colonies were counted by Q-Count (Spiral Biotec Co. Ltd., MD, USA) to determine CFU/ml.
Suspension, as a control, consisted of 3 ml of water and 333 μl of the cell suspension, and also suspension as a reference, consisted of 3 ml of water, 30 μl of ethanol and 333 μl of the cell suspension was employed to determine CFU/ml thereof.
“30 sec” and “1 min” were shown the sampling time, and “Log inc.” was shown the mean Log value of the control.

[3] = 1000 ppm, read-out: CH3SH Inhib. %
[4] = 500 ppm, read-out: CH3SH Inhib. %
[5] = 100 ppm, read-out: CH3SH Inhib. %

Compound: C=CCOC(=O)CCC1CCCCC1 [Allyl cyclohexylpropionate]
- CH3SH Inhib. % ([1]; 500 ppm): 92%

Compound: C=CCOC(=O)CCCCCC [Allyl enanthate]
- inhibition at 1000 ppm [1, 3]: 100%

Compound: CC1(C)C[C@H]2[C@H]1CC[C@]1(C)CCC[C@@]2(O)C1 [Caryophyllene alcohol]
- CH3SH Inhib. % ([1]; 500 ppm): 100%
- Results of Judgment 30 sec (Log decrease of number of bacteria vs control) ([2]; 500 ppm): 1.13 Log
- Results of Judgment 1 min (Log decrease of number of bacteria vs control) ([2]; 500 ppm): 2.25 Log

Compound: COC(/C=C/c1ccccc1)OC [Cinnamicaldehyde dimethyl acetal]
- CH3SH Inhib. % ([1]; 1000 ppm): 100%

Compound: O=C/C=C/c1ccccc1 [Cinnamicaldehyde]
- inhibition at 2000 ppm ([1]; 2000 ppm, read-out: CH3SH Inhib. %): 100%
- Results of Judgment 30 sec (Log decrease of number of bacteria vs control) ([2]; 2000 ppm): >3.42 Log
- Results of Judgment 1 min (Log decrease of number of bacteria vs control) ([2]; 2000 ppm): >3.42 Log

Compound: CC(C)=CCCC(C)=CC=O [Citral]
- inhibition at 500 ppm [1, 4]: 100%

Compound: CCCc1ccc(O)c(OC)c1 [Dihydroeugenol]
- CH3SH Inhib. % ([1]; 2000 ppm): 100%
- Results of Judgment 30 sec (Log decrease of number of bacteria vs control) ([2]; 2000 ppm): >3.42 Log
- Results of Judgment 1 min (Log decrease of number of bacteria vs control) ([2]; 2000 ppm): >3.42 Log

Compound: CC(C)=CCC/C(C)=C/CCC(C)CCO (stereo not shown) [Dihydrofarnesol]
- CH3SH Inhib. % ([1]; 300 ppm): 100%
- Results of Judgment 30 sec (Log decrease of number of bacteria vs control) ([2]; 300 ppm): >3.42 Log
- Results of Judgment 1 min (Log decrease of number of bacteria vs control) ([2]; 300 ppm): >3.42 Log

Compound: CCOC(=O)c1ccccc1O [Ethyl salicylate]
- inhibition at 1000 ppm [1, 3]: 100%

Compound: C=CCc1ccc(O)c(OC)c1 [Eugenol]
- inhibition at 500 ppm [1, 4]: 100%

Compound: CC(C)=CCCC(C)=CCCC(C)=CCO [Farnesol]
- inhibition at 100 ppm [1, 5]: 100%
- Results of Judgment 30 sec (Log decrease of number of bacteria vs control) ([2]; 100 ppm): 3.70 Log
- Results of Judgment 1 min (Log decrease of number of bacteria vs control) ([2]; 100 ppm): >4.18 Log

Compound: CCCCCC=O [Hexylaldehyde]
- CH3SH Inhib. % ([1]; 300 ppm): 82%

Compound: CC(C)c1cccc(=O)c(O)c1 [Hinokitiol]
- inhibition at 1000 ppm [1, 3]: 100%
- Results of Judgment 30 sec (Log decrease of number of bacteria vs control) ([2]; 1000 ppm): >5.24 Log
- Results of Judgment 1 min (Log decrease of number of bacteria vs control) ([2]; 1000 ppm): >5.24 Log

Compound: CC=Cc1ccc(O)c(OC)c1 [Isoeugenol]
- inhibition at 500 ppm [1, 4]: 100%
- Results of Judgment 30 sec (Log decrease of number of bacteria vs control) ([2]; 500 ppm): >3.93 Log
- Results of Judgment 1 min (Log decrease of number of bacteria vs control) ([2]; 500 ppm): >3.93 Log

Compound: C=CC(C)(CCC=C(C)C)OC(C)=O (stereo not shown) [Linalyl acetate]
- inhibition at 500 ppm [1, 4]: 43%

Compound: CC1CCC(C(C)C)C(O)C1 (stereo not shown) [Menthol]
- inhibition at 3000 ppm ([1]; 3000 ppm, read-out: CH3SH Inhib. %): 100%

Compound: CC(C)[C@@H]1CC[C@@H](C)C[C@H]1OCC(O)CO (stereo partly shown) [Menthoxypropanediol]
- CH3SH Inhib. % ([1]; 1000 ppm): 100%

Compound: COC(=O)c1ccccc1O [Methyl salicylate]
- inhibition at 1000 ppm [1, 3]: 100%

Compound: CC1=CCC(=C(C)C)CC1 [Terpinolene]
- inhibition at 100 ppm [1, 5]: 36%
- Results of Judgment 30 sec (Log decrease of number of bacteria vs control) ([2]; 100 ppm): 1.16 Log
- Results of Judgment 1 min (Log decrease of number of bacteria vs control) ([2]; 100 ppm): 1.63 Log

Compound: Cc1ccc(C(C)C)c(O)c1 [Thymol]
- inhibition at 300 ppm ([1]; 300 ppm, read-out: CH3SH Inhib. %): 100%

Compound: C=C(C)[C@H]1CC=C(C)CC1 [d-Limonene]
- CH3SH Inhib. % ([1]; 3000 ppm): 100%
- Results of Judgment 30 sec (Log decrease of number of bacteria vs control) ([2]; 500 ppm): 0.93 Log
- Results of Judgment 1 min (Log decrease of number of bacteria vs control) ([2]; 500 ppm): 1.50 Log

Compound: COc1ccccc1C=CC=O [o-Methoxycinnamicaldehyde]
- CH3SH Inhib. % ([1]; 1000 ppm): 100%
- Results of Judgment 30 sec (Log decrease of number of bacteria vs control) ([2]; 1000 ppm): 2.61 Log
- Results of Judgment 1 min (Log decrease of number of bacteria vs control) ([2]; 1000 ppm): 3.85 Log

Compound: CCCCCC(C=O)=Cc1ccccc1 [α-Amylcinnamicaldehyde]
- CH3SH Inhib. % ([1]; 500 ppm): 99%

Compound: C=C1CCC2CC1C2(C)C (stereo not drawn) [β-Pinene]
- inhibition at 500 ppm [1, 4]: 59%
- Results of Judgment 30 sec (Log decrease of number of bacteria vs control) ([2]; 500 ppm): 0.71 Log
- Results of Judgment 1 min (Log decrease of number of bacteria vs control) ([2]; 500 ppm): 1.12 Log

Compound: CCCCCCC1CCC(=O)O1 (stereo not shown) [γ-Decalactone]
- CH3SH Inhib. % ([1]; 100 ppm): 59%

Compound: CC1=CCC(C(C)C)=CC1 [γ-Terpinene]
- inhibition at 500 ppm [1, 4]: 66%
- Results of Judgment 30 sec (Log decrease of number of bacteria vs control) ([2]; 500 ppm): 0.94 Log
- Results of Judgment 1 min (Log decrease of number of bacteria vs control) ([2]; 500 ppm): 1.26 Log

Compound: CCCCCCCC1CCC(=O)O1 (stereo not shown) [γ-Undecalactone]
- CH3SH Inhib. % ([1]; 100 ppm): 70%

Compound: L-Carvone
- CH3SH Inhib. % ([1]; 1000 ppm): 100%
